Data as given in ChEMBL document CHEMBL3885881, “DrugMatrix”.

Organism: Rattus norvegicus
Experiment: DrugMatrix - Regimen: Daily Repeat
Format: toxicity, organism-based, Sprague-Dawley
Set-up: regimen Daily Repeat, gender Male, age 6-8 weeks
Settings: in vivo, po, 1500 mg/kg, route oral GAVAGE, dose level High, vehicle .5 % CMC; for ABSOLUTE BASOPHIL / ABSOLUTE EOSINOPHIL / ABSOLUTE LYMPHOCYTE / ABSOLUTE MONOCYTE / ABSOLUTE SEGMENTED NEUTROPHIL / BASOPHIL / EOSINOPHIL / ERYTHROCYTE COUNT / HEMATOCRIT / HEMOGLOBIN / LEUKOCYTE COUNT / LYMPHOCYTE / MEAN CORPUSCULAR HEMOGLOBIN / MEAN CORPUSCULAR HEMOGLOBIN CONCENTRATION / MEAN CORPUSCULAR VOLUME / MONOCYTE / NEUTROPHIL / NUCLEATED RED BLOOD CELLS / PLATELET COUNT: tissue Blood; for ALANINE AMINOTRANSFERASE / ALBUMIN / ALKALINE PHOSPHATASE / ASPARTATE AMINOTRANSFERASE / BLOOD UREA NITROGEN / CARBON DIOXIDE / CHLORIDE / CHOLESTEROL / CREATINE PHOSPHOKINASE / CREATININE / GLUCOSE / LACTATE DEHYDROGENASE / LIPASE / PHOSPHORUS / POTASSIUM / SODIUM / TOTAL BILIRUBIN / TOTAL PROTEIN / URIC ACID: tissue Plasma

Cc1ccc(S(=O)(=O)NC(=O)NN2CC3CCCC3C2)cc1 (stereo unspecified) [GLICLAZIDE]
ABSOLUTE BASOPHIL (72 h, time 3 day): 0 CELLS/uL
ABSOLUTE EOSINOPHIL (72 h, time 3 day): 66 CELLS/uL
ABSOLUTE LYMPHOCYTE (72 h, time 3 day): 14884.33 CELLS/uL
ABSOLUTE MONOCYTE (72 h, time 3 day): 365.67 CELLS/uL
ABSOLUTE SEGMENTED NEUTROPHIL (72 h, time 3 day): 2117.33 CELLS/uL
BASOPHIL (72 h, time 3 day): 0%
EOSINOPHIL (72 h, time 3 day): 0.33%
ERYTHROCYTE COUNT (72 h, time 3 day): 6.45 x10E6/uL
HEMATOCRIT (72 h, time 3 day): 39.57%
HEMOGLOBIN (72 h, time 3 day): 15.77 G/DL
LEUKOCYTE COUNT (72 h, time 3 day): 17.43 x10E3/uL
LYMPHOCYTE (72 h, time 3 day): 85.33%
MEAN CORPUSCULAR HEMOGLOBIN (72 h, time 3 day): 24.4 pg
MEAN CORPUSCULAR HEMOGLOBIN CONCENTRATION (72 h, time 3 day): 39.83 G/DL
MEAN CORPUSCULAR VOLUME (72 h, time 3 day): 61.27 fL
MONOCYTE (72 h, time 3 day): 2%
NEUTROPHIL (72 h, time 3 day): 12.33%
NUCLEATED RED BLOOD CELLS (72 h, time 3 day): 0 /100WBC
PLATELET COUNT (72 h, time 3 day): 1204.33 x10E3/uL
ALANINE AMINOTRANSFERASE (72 h, time 3 day): 29 u/L
ALBUMIN (72 h, time 3 day): 4.03 G/DL
ALKALINE PHOSPHATASE (72 h, time 3 day): 337.33 u/L
ASPARTATE AMINOTRANSFERASE (72 h, time 3 day): 85.67 u/L
BLOOD UREA NITROGEN (72 h, time 3 day): 17.33 mg/dL
CARBON DIOXIDE (72 h, time 3 day): 26.33 mmol/L
CHLORIDE (72 h, time 3 day): 100.67 MEQ/L
CHOLESTEROL (72 h, time 3 day): 39.33 mg/dL
CREATINE PHOSPHOKINASE (72 h, time 3 day): 319 u/L
CREATININE (72 h, time 3 day): 0.14 mg/dL
GLUCOSE (72 h, time 3 day): 104.67 mg/dL
LACTATE DEHYDROGENASE (72 h, time 3 day): 118.33 u/L
LIPASE (72 h, time 3 day): 8.67 u/L
PHOSPHORUS (72 h, time 3 day): 11.03 mg/dL
POTASSIUM (72 h, time 3 day): 6.27 MEQ/L
SODIUM (72 h, time 3 day): 141.67 MEQ/L
TOTAL BILIRUBIN (72 h, time 3 day): 0.13 mg/dL
TOTAL PROTEIN (72 h, time 3 day): 5.43 G/DL
URIC ACID (72 h, time 3 day): 2.57 mg/dL
ABSOLUTE BASOPHIL (120 h, time 5 day): 0 CELLS/uL
ABSOLUTE EOSINOPHIL (120 h, time 5 day): 0 CELLS/uL
ABSOLUTE LYMPHOCYTE (120 h, time 5 day): 11101.33 CELLS/uL
ABSOLUTE MONOCYTE (120 h, time 5 day): 80.33 CELLS/uL
ABSOLUTE SEGMENTED NEUTROPHIL (120 h, time 5 day): 1151.67 CELLS/uL
BASOPHIL (120 h, time 5 day): 0%
EOSINOPHIL (120 h, time 5 day): 0%
ERYTHROCYTE COUNT (120 h, time 5 day): 6.29 x10E6/uL
HEMATOCRIT (120 h, time 5 day): 37%
HEMOGLOBIN (120 h, time 5 day): 14.7 G/DL
LEUKOCYTE COUNT (120 h, time 5 day): 12.33 x10E3/uL
LYMPHOCYTE (120 h, time 5 day): 90%
MEAN CORPUSCULAR HEMOGLOBIN (120 h, time 5 day): 23.4 pg
MEAN CORPUSCULAR HEMOGLOBIN CONCENTRATION (120 h, time 5 day): 39.8 G/DL
MEAN CORPUSCULAR VOLUME (120 h, time 5 day): 58.83 fL
MONOCYTE (120 h, time 5 day): 0.67%
NEUTROPHIL (120 h, time 5 day): 9.33%
NUCLEATED RED BLOOD CELLS (120 h, time 5 day): 0 /100WBC
PLATELET COUNT (120 h, time 5 day): 1131.67 x10E3/uL
ALANINE AMINOTRANSFERASE (120 h, time 5 day): 46 u/L
ALBUMIN (120 h, time 5 day): 4.17 G/DL
ALKALINE PHOSPHATASE (120 h, time 5 day): 318 u/L
ASPARTATE AMINOTRANSFERASE (120 h, time 5 day): 93 u/L
BLOOD UREA NITROGEN (120 h, time 5 day): 21.33 mg/dL
CARBON DIOXIDE (120 h, time 5 day): 23.33 mmol/L
CHLORIDE (120 h, time 5 day): 103.67 MEQ/L
CHOLESTEROL (120 h, time 5 day): 44.67 mg/dL
CREATINE PHOSPHOKINASE (120 h, time 5 day): 248.33 u/L
CREATININE (120 h, time 5 day): 0.18 mg/dL
GLUCOSE (120 h, time 5 day): 101.67 mg/dL
LACTATE DEHYDROGENASE (120 h, time 5 day): 168.33 u/L
LIPASE (120 h, time 5 day): 10 u/L
PHOSPHORUS (120 h, time 5 day): 10.43 mg/dL
POTASSIUM (120 h, time 5 day): 6.21 MEQ/L
SODIUM (120 h, time 5 day): 144.47 MEQ/L
TOTAL BILIRUBIN (120 h, time 5 day): 0.1 mg/dL
TOTAL PROTEIN (120 h, time 5 day): 5.7 G/DL
URIC ACID (120 h, time 5 day): 1.7 mg/dL
